Laboratory results published in US20030203963A1, “Antimicrobial agent” (priority 2001, published 2003).

Tests used:
[1] = system: Salm Typhimurium S29; experiment: Test in cooked sausage meat slurry; type: cell-based, Salmonella Typhimurium; settings: for Total inhibition for: cooked sausage meat slurry at 8° C., pH 6.2, TSM010605
Excerpt: 500 g of bologna sausage meat mixture was mixed with 500 g Brain Heart Infusion broth (BHIB) to make a homogeneous slurry. The bologna sausage meat mix comprised (g per kg): lean beef 320; lean pork 202; lard 250; water 40; glucose 5; starch 155; spice mix 3.75; sodium glutamate 0.5; sodium erythorbate 0.545; sodium di-phosphate 3; NaCl 20; sodium nitrite 0.15. 200 g samples of the meat slurry were autoclaved. While the meat was still warm it was re-mixed thoroughly. When the meat had cooled it was inoculated with 2 ml of 10^5 cfu/ml spore or cell suspension, and re-mixed again. Each inoculated meat sample was divided into 3×50 g samples, and 1 ml of either SDW, 2.5% or 5% APP solution (batch number APP 20010215) was added to prepare meat samples containing 0, 500 and 1000 ppm APP. The meat slurry was again shaken thoroughly to ensure even mixing, an initial viable count was taken and the samples incubated at 8° C. Samples were taken at twice-weekly intervals. The pH of the sausage meat slurry was 6.2.

[2] = system: L. monocytogenes 272; experiment: Test in cooked minced chicken slurry; type: cell-based, Listeria monocytogenes
Experimental: (§1) 1 kg of minced chicken (mainly lean meat) was purchased from the local butcher. This was mixed with 1 litre of BHI, mixed and dispensed as 100 g samples prior to autoclaving. When still warm, the meat was re-mixed thoroughly. When cooked, the meat was inoculated with 1 ml of 10^5 spores or cells (from an overnight broth), and re-mixed. The samples were then divided into 3×25 g portions, to which 0.5 ml of filter-sterilised APP20010215 was added (as 5% or 10% stock solutions) or water. An initial viable count was taken, and the samples then incubated at 8° C. and tested twice weekly. The pH of the chicken slurry was 6.42.

[3] = system: Ps. fluorescens 327; experiment: Test in cooked minced chicken slurry; type: cell-based, Pseudomonas fluorescens; settings: 2000 ppm, minced chicken slurry at 8° C.
Experimental: as §1

[4] = system: Salmonella Typhimurium S29; experiment: Chicken soup trial at 20° C.; type: cell-based; settings: chicken soup at 20° C., TCSM010430, APP20010213
Excerpt: A local supermarket brand of cream of chicken soup was used as a model food system. 600 g packs were purchased from the local supermarket. This was a ‘fresh home-made type’ of soup that was stored in the chill cabinet, with a short shelf life. It was chosen because it is a rich, nutritious food system containing a range of food components including meat, dairy and vegetable.
Ingredients were labelled as: chicken stock (water, duck fat, chicken, salt, flavourings, yeast extracts, pork gelatine, glucose syrup, vegetable concentrate, milk protein, sugar, malto-dextrin, vegetable oil, citric acid, lactose, chicken fat), ilk, chicken (9%), cream (8%), onion, potato, vegetable oil, modified maize starch, wheat flour, lemon juice, salt, white pepper. pH 5.912. Protein: 3.3%; carbohydrate: 4.7%; fat: 7.2%; fibre: 0.2%; sodium: 0.1%
For the test the soup was mixed 2:1 in water (to facilitate sampling and mixing) and sterilised by autoclaving at 121° C. for 15 minutes. For each experiment the pH of the soup was recorded; this was between pH 5.79-5.88.
For TCS010430/20 (incubated at 20° C.) samples were prepared in 18.8 g quantities, to which 1 g of a suitable filter-sterilised APP stock solution was added and an appropriately diluted 0.2 ml inoculum. Great care was again taken to ensure homogeneous distribution of the APP and micro-organisms. This test was sampled by viable count test on a daily basis.

[5] = system: L. monocyt. F6861; experiment: Bioscreen growth inhibition test; type: cell-based, Listeria monocytogenes; settings: BS010510, 24 h at 30° C., APP20010213
Experimental: (§2) For broth cultures and Bioscreen testing most bacteria were grown in Brain Heart Infusion (BHI, Oxoid, pH 7.4). Lactobacillus sake A10 was grown in de Man, Rogosa, Sharpe medium ([…], Oxoid). Yeasts were grown in Sabouraud Liquid medium (SLM, Oxoid). Most bacteria were cultured at 30° C. Lactic acid bacteria were grown on solid medium in enriched CO2 atmosphere. Clostridium species were grown in Reinforced Clostridial Medium (RCM) at 37° C. anaerobically. Brochothrix thermosphacta fungi and yeasts were grown at 25° C. Fungi were cultured on Malt Extract Agar (MEA, Oxoid).
(§3) An automated Microbiology Reader Bioscreen C was used to measure growth curves of the strains in the presence and absence of APP. The Bioscreen C measures the development of turbidity (i.e. growth) kinetically by vertical photometry in 200 wells of a honeycomb microtitre plate, simultaneously. The system consists of a Bioscreen C analyser, which is an incubator and measurement unit, integrated with a PC, software (BioLink v 5.30), printer and a ‘Honeycomb 2’ cuvette multiwell plate. Growth curve data can be analysed within the BioLink software or exported to programs such as Excel.
(§4) Broth culture media were dispensed in 270 μl volumes into the wells as directed. Serial dilutions of a filter-sterilised APP stock solution were then dispensed into the same wells, as appropriate. The wells were inoculated with 30 μl of an appropriately diluted overnight broth culture or spore suspension, to give a final inoculum level of […]. The tests were incubated in the Bioscreen C for either 24 h at 30° C., or 72 h at 25° C. (depending on the micro-organism under investigation) with readings taken every 20 minutes after the trays were shaken. After the incubation period was complete the data were exported to Excel for analysis.

[6] = system: L. monocytogenes S23; experiment: Bioscreen growth inhibition test; type: cell-based, Listeria monocytogenes; settings: BS010411, 24 h at 30° C.
Experimental: as §2, §3, §4

[7] = system: L. monocyt. Scott A; experiment: Bioscreen growth inhibition test; type: cell-based, Listeria monocytogenes; settings: BS010510, 24 h at 30° C., APP20010213
Experimental: as §2, §3, §4

[8] = system: L. monocytogenes 358; experiment: Bioscreen growth inhibition test; type: cell-based, Listeria monocytogenes; settings: BS010510, 24 h at 30° C., APP20010213
Experimental: as §2, §3, §4

[9] = system: L. monocytogenes 272; experiment: Bioscreen growth inhibition test; type: cell-based, Listeria monocytogenes; settings: BS010411, 24 h at 30° C.
Experimental: as §2, §3, §4

## O=C1CC(CO)OC=C1O (stereo not drawn) [APP, Ascopyrone P]
[1]; 500 ppm
  Total inhibition for: Total inhibition by 500 for 25 d
[1]; 1000 ppm
  Total inhibition for: Total inhibition by 1000 ppm for >38 d
[1]; Cooked sausage meat slurry at 8° C. pH 6.2, (1000)
  Total inhibition (effect on growth of target organism by APP): S. Typhimurium
[2]; 2000 ppm, minced chicken slurry at 8° C., pH 6.42, TCC010704
  Effect on growth: Slight inhibition by 2000 ppm only
[2]; Cooked minced chicken slurry at 8° C. pH 6.42, organism printed in brackets
  No inhibition (effect on growth of target organism by 2000 ppm APP): (L. monocytogenes)
[3]; TCC010704, controls 3 d
  10^6 reached at: 10 d
[3]; pH 6.42, TCC010704
  Effect on growth: No total inhibition
[4]; 1000 ppm
  Effect on growth: No effect with 1000 ppm
[4]; 2000 ppm (cf 10^9 without)
  Final count: 10^6
[4]; 2000 ppm
  Counts drop after: 8 days
  Counts undetectable by: counts drop, undetectable by 18 d.
[5]
  APP level causing significant inhibition: 2000 ppm
  APP level causing total inhibition: 3000 ppm
[6]; APP20010213
  APP level causing significant inhibition: 2000 ppm
  APP level causing total inhibition: 4000 ppm
[6]; APP20010215
  APP level causing significant inhibition: 1000 ppm
  APP level causing total inhibition: 4000 ppm
[7]
  APP level causing significant inhibition: 2000 ppm
  APP level causing total inhibition: 3000 ppm
[8]
  APP level causing total inhibition: 3000 ppm
[9]; APP20010213
  APP level causing significant inhibition: 2000 ppm
  APP level causing total inhibition: 4000 ppm
[9]; APP20010215
  APP level causing significant inhibition: 2000 ppm
  APP level causing total inhibition: >4000 ppm
